The values below come from patent publication US8741932B2, “Imidazopyridine derivatives” (Piramal Enterprises Limited, priority 2009, dated 2014).

One experiment concerns A549. Nature of the experiment: Cytotoxicity assay (propidium iodide), A549. The note with it: Homo sapiens; A549 (C1a, lung); 48 hours. The format is cell-based.
Another experiment relates to H460. Kind of experiment: Cytotoxicity assay (propidium iodide), H460. The experiment is classed as cell-based. To be noted: Homo sapiens, NCI-H460; H460 (C1b, lung); 48 hours.
In the next experiment the test system is A2780. Kind of experiment: Cytotoxicity assay (propidium iodide), A2780. The experiment is classed as cell-based. The note with it: Homo sapiens; A2780 (C3a, ovarian); 48 hours.
The subject of another experiment is OVCAR 3. Kind of experiment: Cytotoxicity assay (propidium iodide), OVCAR 3. The experiment is classed as cell-based. The note with it: Homo sapiens; OVCAR 3 (C3c, ovarian); 48 hours.
The test system of a further experiment is HCT116. Kind of experiment: Cytotoxicity assay (propidium iodide), HCT116. The experiment is classed as cell-based. The note with it: Homo sapiens, HCT-116; HCT116 (C4b, colon); 48 hours.
In the next experiment the test system is PANC 1. Nature of the experiment: Cytotoxicity assay (propidium iodide), PANC 1. The note with it: Homo sapiens; PANC 1 (C5a, pancreatic); 48 hours. The experiment is classed as cell-based.
In a further experiment the test system is CAPAN1. Kind of experiment: Cytotoxicity assay (propidium iodide), CAPAN1. The note with it: Homo sapiens, CAPAN-1; CAPAN1 (C5b, pancreatic); 48 hours. The format is cell-based.
The next experiment concerns STAT3. Kind of experiment: STAT3 bioassay (Hela Stat3-luc, luciferase). The experiment is classed as cell-based. The note with it: Homo sapiens, Oncostatin M induction. How it is done:
Cells were seeded (Hela Stat3-luc, ATCC P/N 30-2002) in a white 96 well plate (Nunc cat.no.136101) at a density of 20,000cells/well in 179 μl volume per well (DMEM from Sigma containing 10% FCS). The plate was incubated for 24 hours at 37° C./5% CO2. The cells (wells in triplicates) were then treated with 1 μl/well of 200× stock of the desired compound concentration prepared in 100% DMSO. Curcumin was used as a standard or positive control, added 10 μg/ml in triplicate. DMSO was used as medium control (1 μl/well added in triplicates). The plate was incubated at 37° C./5% CO2 for 1 hour. 20 μl/well Oncostatin M (Oncostatin M, Human, Recombinant, E. coli, Cat.No. 496260, 10 μg from Calbiochem) was added to treated wells, induction control (in triplicate) (1000 ng/ml stock prepared in serum free medium to get final concentration 100 ng/ml). The plate was then incubated for 7-8 hours at 37° C./5% CO2 for induction. A typical assay would consist of triplicate of medium control, triplicate of induction control, triplicate of positive/standard control and test compounds at desired concentration in triplicates. For termination Luciferase assay protocol was followed where the culture medium was removed from all the wells.
200 μl well of PBS was added to remove traces of medium and compound. The PBS was discarded. 40 μl/well of 1× lysis buffer was added to all the wells. The plate was incubated at RT for 20 minutes with intermittent shaking. 100 μl/well of LAB reagent was added to all the wells in dark. {LAB reagent for 1 plate=8 ml Luciferase assay buffer (LAB)+1 ml Coenzyme A (Sigma cat no. C3019) (2.1 mg/ml stock in LAB)+530 μL of ATP (Sigma cat.no.A2383) (5.85 mg/ml stock in LAB)+1 ml luciferin reagent (Promega cat no.245355) (2 mg/ml stock in LAB, protect from light)}.
The luminescence was immediately read on polar star. The values were expressed as percentage inhibition, in terms of treated values to that STAT3 (induction control). IC50 values were calculated from graphs using these percentages.

Experiment [1] has as its system IL-6. Nature of the experiment: Human monocyte assay, LPS-stimulated IL-6. The format is cell-based. The note with it: Monocyte; human monocytes, 1 μg/ml LPS, 5 hours. The essentials:
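Adherent human PBMC-derived monocytes (2×10^4/well) were cultured 48 h, preincubated 30 min with compound or 0.5% DMSO, then stimulated with 1 μg/ml E. coli LPS for 5 h at 37° C. TNF-α and IL-6 in supernatants were measured by ELISA.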

For experiment [2], the system named is TNF-α. Kind of experiment: Human monocyte assay, LPS-stimulated TNF-α. The experiment is classed as cell-based. To be noted: human monocytes, 1 μg/ml LPS, 5 hours. How it is done:
The assay was designed as in the reference, Physiol.
Peripheral blood mononuclear cells (hPBMC) were harvested from human blood and suspended in RPMI 1640 culture medium containing 10% FCS, 100 U/mL penicillin and […] streptomycin (assay medium). Monocytes in the hPBMCs were counted using a Coulter Counter following which the cells were resuspended at 2×10^5 monocytes/mL. A cell suspension containing 2×10^4 monocytes was aliquoted per well of a 96-well plate. Subsequently, the hPBMCs were incubated for 4-5 hours at 37° C., 5% CO2 (During the incubation, the monocytes adhered to the bottom of 96-well plastic culture plate). Following the incubation, the non-adherent lymphocytes were washed with assay medium and the adherent monocytes re-fed with assay medium. After a 48-hour incubation period (37° C., 5% CO2), monocytes were pretreated with various concentrations of representative compounds of present invention (refer to table 6 and 7) (prepared in DMSO) or vehicle (0.5% DMSO) for 30 minutes and stimulated with 1 μg/ml LPS (Escherchia coli 0111:B4, Sigma Chemical Co., St. Louis, Mo.). The incubation was continued for 5 hours at 37° C., 5% CO2. Supernatants were harvested, assayed for IL-6 and TNF-α by ELISA as described by the manufacturer (BD Biosciences, USA). Dexamethasone (10 μM) was used as standard for this assay. […] Biological results for both IL-6 and TNFα are indicated in Table 6 and Table 7 respectively.

A further experiment concerns PC3. Nature of the experiment: Cytotoxicity assay (propidium iodide), PC3. To be noted: Homo sapiens, PC-3, 48 h, read-out: IC50 cytotoxicity.
Experiment [3] has as its system IL-6. Kind of experiment: Synovial tissue assay, IL-6. The experiment is classed as cell-based. The note with it: Homo sapiens; synovial tissue cells from rheumatoid arthritis patients, 16 hours. How it is done:
(§1) The assay was designed as in the reference, Lancet, 2(8657), 244-7, Jul.
(§2) Stock Solution: Compounds of the present invention were dissolved in DMSO to obtain a stock solution of 20 mM.
(§3) Synovial tissue was obtained from rheumatoid arthritis patients undergoing knee replacement surgery. The tissue was minced into small pieces and digested in RPMI medium containing 100 U/ml penicillin-G, 100 μg/ml streptomycin, 50 ng/ml amphotericin B (GIBCO; USA), 1.33 mg/ml collagenase Type I (Worthington Biochemical Corporation, New Jersey), 0.5 μg/ml DNAse Type I (Sigma Aldrich; St. Louis, Mo.) and 8.33 U/ml heparin (Biological E. Limited, India) for 3 hours at 37° C., 5% CO2. The digested tissue was filtered through a membrane (mesh size 70 micron; Sigma Aldrich). Subsequently, the cells were washed 3 times and resuspended in complete medium (RPMI supplemented with 5% FBS and 5% human serum-AB+) at a concentration of 1×10^6 cells/ml. All cell washes in this assay were performed using Rosewall Park Memorial Institute (RPMI)-1640 medium (JRH; Australia). For the experiment, 100 μl of cell suspension was added to the wells of a 96-well culture plate. Following cell plating, 100 μl of the culture medium and 1 μl of various concentrations (0.01, 0.03, 0.1, 0.3, 1, 3, 10, 30 and 100 μM) of the compounds of present invention dissolved in DMSO were added to the cells. The final concentration of DMSO was adjusted to 0.5%. For experimental purposes, 1 μl of […] concentrated solution of the compounds of present invention were dissolved in 200 μl cell suspension to achieve a final concentration of 0.01, 0.03, 0.1, 0.3, 1, 3, 10, 30 and 100 μM. The vehicle (0.5% DMSO) was used as control. 10 μM dexamethasone (Sigma Aldrich) or 1 μM 7-hydroxyfluorinide (7HF) were used as standards for the experiments. The plates were incubated for 16 hours at 37° C., 5% CO2. Subsequently, the supernatants were harvested and stored at −70° C. The amounts of TNF-α, IL-6 and interleukin-8 (IL-8) in the supernatants were assayed using OptiEIA ELISA sets, (BD BioSciences Pharmingen). The protocol followed was as per manufacturers instructions. […] The cytotoxicity of test compounds in synovial cells was assessed by MTS assay. Absorbance was measured at 490 nm. Percent cytotoxicity was calculated by the equation: % Cytotoxicity=(A−B)/A×100 where, A is the absorbance of cells treated with DMSO alone and B is the absorbance of cells treated with the test article.

In experiment [4] the test system is TNF-α. Nature of the experiment: Synovial tissue assay, TNF-α. The format is cell-based. The note with it: Homo sapiens; synovial tissue cells from rheumatoid arthritis patients, 16 hours. How it is done: as §1, §2, §3
The next experiment relates to IL-8. Nature of the experiment: Synovial tissue assay, IL-8. To be noted: Homo sapiens; synovial tissue cells from rheumatoid arthritis patients, 16 hours. The format is cell-based. How it is done: as §1, §2, §3
A further experiment deals with T1, PI3Kα kinase (Homo sapiens, UniProt P42336).
T1 construct: purchased Millipore, USA
T1 sequence (P42336 whole entry): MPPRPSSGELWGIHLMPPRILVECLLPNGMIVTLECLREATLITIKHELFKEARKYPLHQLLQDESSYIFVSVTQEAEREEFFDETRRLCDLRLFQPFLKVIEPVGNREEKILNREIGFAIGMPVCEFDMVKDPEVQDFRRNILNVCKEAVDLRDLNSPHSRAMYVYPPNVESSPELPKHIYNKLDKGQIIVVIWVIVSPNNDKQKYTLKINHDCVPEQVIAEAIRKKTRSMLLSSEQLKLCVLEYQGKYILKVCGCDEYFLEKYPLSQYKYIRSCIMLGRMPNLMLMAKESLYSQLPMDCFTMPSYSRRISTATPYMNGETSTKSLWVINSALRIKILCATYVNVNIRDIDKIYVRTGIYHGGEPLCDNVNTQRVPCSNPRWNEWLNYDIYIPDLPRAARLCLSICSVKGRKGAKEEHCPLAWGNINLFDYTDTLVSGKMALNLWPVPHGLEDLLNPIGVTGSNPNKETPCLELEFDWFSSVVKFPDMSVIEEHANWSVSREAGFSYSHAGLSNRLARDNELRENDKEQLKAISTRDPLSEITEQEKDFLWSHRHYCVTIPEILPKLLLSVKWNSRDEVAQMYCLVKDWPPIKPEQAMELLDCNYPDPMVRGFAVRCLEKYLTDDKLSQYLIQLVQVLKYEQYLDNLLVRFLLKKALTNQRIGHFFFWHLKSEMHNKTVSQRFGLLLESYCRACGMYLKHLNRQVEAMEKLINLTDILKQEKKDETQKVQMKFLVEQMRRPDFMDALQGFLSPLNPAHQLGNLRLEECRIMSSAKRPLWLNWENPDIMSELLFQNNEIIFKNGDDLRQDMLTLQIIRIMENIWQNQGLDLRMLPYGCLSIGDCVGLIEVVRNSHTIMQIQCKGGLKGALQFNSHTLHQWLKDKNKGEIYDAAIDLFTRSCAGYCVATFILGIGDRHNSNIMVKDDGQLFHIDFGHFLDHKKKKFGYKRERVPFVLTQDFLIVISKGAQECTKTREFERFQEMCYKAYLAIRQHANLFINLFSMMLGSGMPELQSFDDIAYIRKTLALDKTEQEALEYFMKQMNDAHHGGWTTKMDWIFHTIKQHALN
T1 sequence (P27986 whole entry partner): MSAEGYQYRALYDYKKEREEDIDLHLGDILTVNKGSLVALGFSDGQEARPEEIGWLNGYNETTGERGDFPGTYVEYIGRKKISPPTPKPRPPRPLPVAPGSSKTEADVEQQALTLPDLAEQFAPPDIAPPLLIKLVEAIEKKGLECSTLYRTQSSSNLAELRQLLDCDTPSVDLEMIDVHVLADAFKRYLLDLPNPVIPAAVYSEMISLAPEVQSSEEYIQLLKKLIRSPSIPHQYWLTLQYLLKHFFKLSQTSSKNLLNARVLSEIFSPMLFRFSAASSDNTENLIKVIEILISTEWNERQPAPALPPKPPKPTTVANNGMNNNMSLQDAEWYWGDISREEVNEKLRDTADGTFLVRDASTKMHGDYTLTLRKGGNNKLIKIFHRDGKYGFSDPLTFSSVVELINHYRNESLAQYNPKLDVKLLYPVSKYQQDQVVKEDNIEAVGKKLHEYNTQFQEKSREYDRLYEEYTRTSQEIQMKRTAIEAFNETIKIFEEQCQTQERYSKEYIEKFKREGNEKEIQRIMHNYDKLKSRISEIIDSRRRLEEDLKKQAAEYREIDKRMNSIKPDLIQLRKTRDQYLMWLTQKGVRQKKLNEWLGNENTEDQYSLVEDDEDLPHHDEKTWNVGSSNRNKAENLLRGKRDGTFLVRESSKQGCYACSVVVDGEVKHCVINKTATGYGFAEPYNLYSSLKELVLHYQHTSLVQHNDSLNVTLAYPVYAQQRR
Kind of experiment: Kinase assay (PI3Kα). To be noted: read-out: IC50 (μM) for PI3K inhibition. The format is biochemical. How it is done:
The kinase reaction was carried out in a 25 μL volume in a 1.5 mL microcentrifuge tube. The reaction mixture consisted of kinase buffer (10 mM Hepes, pH 7.5, 50 mM MgCl2), 20 ng PI3Kα kinase (Millipore, USA), 12.5 μg phosphotidylinositol (PI), 10 μM ATP and 1 μCi ^32γ P […]. […] The reactions were incubated at 30° C. for 20 minutes and were terminated by adding 1:1 mixture of MeOH and CHCl3. The tube contents were mixed on a vortex mixer and centrifuged at 10000 rpm for 2 minutes. 10 μL of the organic (lower) phase was spotted on to a TLC plate (silica, mobile phase: n-propanol and 2 M glacial acetic acid in 65:35 ratio). The plates were dried and exposed to an X-ray film. The bands appearing as a result of ^32γ P incorporation in PI were quantitated using the Quantityl)ne (BioRad, USA) densitometry program. PI-103 (Calbiochem, USA) was used as a standard.

Experimental for CAPAN1: (§4) Cells from cell lines as mentioned in the table given below were seeded at a density of 3000 cells/well in a white opaque 96-well plate. Following incubation at 37° C./5% CO2 for a period of 18-24 hours, the cells were treated with various concentrations (stock solution was prepared in DMSO and subsequent dilutions were made in media as per ATCC guidelines) of the representative compounds of present invention (refer table 3) for a period of 48 hours. At the end of treatment, the spent culture medium was discarded, the cells were washed with 1×PBS and 200 μl of 7 μg/ml propidium iodide was added to each well. The plates were frozen at −70° C. for at least 24 hours. For analysis, the plates were brought to RT, allowed to thaw and were read in PolarStar fluorimeter with the fluorescence setting. The percentage of viable cells in the non treated set of wells was considered to be 100 and the percentage viability following treatment was calculated accordingly. IC50 values were calculated from graphs plotted using these percentages.
Experimental for PANC 1: as §4

As to `CN(N=Cc1cnc2ccc(-c3cccnc3)cn12)S(=O)(=O)c1ccccc1` [Example 1, N-methyl-N′-((6-(pyridin-3-yl)imidazo[1,2-a]pyridin-3-yl)methylene)benzenesulfonohydrazide], the IC50 in the experiment on A549, in the experiment with H460, with A2780, in the experiment on OVCAR 3, with HCT116 and in the experiment with PANC 1 was 10 to 5000 nM each time. In addition, the IC50 in the experiment on CAPAN1 lay within 10 to 5000 nM; with STAT3, 5000 to 10000 nM; in the experiment with IL-6 [1] it was 0.001 to 5 µM; in the experiment on TNF-α [2] it was 1 to 1000 nM; in the experiment on PC3 it was 10 to 5000 nM.

Turning to `CN(N=Cc1cnc2ccc(-c3cccnc3)cn12)S(=O)(=O)c1ccccc1F` [Example 4, 2-Fluoro-N-methyl-N′-((6-(pyridine-3-yl)imidazo[1,2-a]pyridine-3-yl)methylene)benzenesulfonohydrazide], the IC50 in the experiment on STAT3 is 100 to 5000 nM; with IL-6 [1] it was 0.001 to 5 µM; in the experiment with TNF-α [2], 1 to 1000 nM; in the experiment with IL-6 [3], 0.01 to 0.3 µM; in the experiment with TNF-α [4], 0.01 to 0.3 µM; in the experiment with IL-8, 0.3 to 3 µM.

In the case of `CN(/N=C/c1cnc2ccc(-c3cccnc3)cn12)S(=O)(=O)c1cccc(C#N)c1` [Example 10, (E)-3-cyano-N-methyl-N′-((6-(pyridin-3-yl)imidazo[1,2-a]pyridin-3-yl)methylene)benzenesulfonohydrazide], the IC50 in the experiment on A549 lay in the range of 10 to 5000 nM; in the experiment on H460 it was 10 to 5000 nM; in the experiment with A2780 it was 10 to 5000 nM; in the experiment with OVCAR 3 it was 10 to 5000 nM; with HCT116, 10 to 5000 nM; in the experiment on STAT3 it was 100 to 5000 nM. Moreover, the IC50 in the experiment on IL-6 [1] lay within 0.001 to 5 µM; in the experiment with TNF-α [2], 1 to 1000 nM; in the experiment on PC3, 10 to 5000 nM.

For the compound `CN(N=Cc1cnc2ccc(-c3cccnc3)cn12)S(=O)(=O)c1ccc(F)cc1F` [Example 13, 2,4-Difluoro-N-methyl-N′-((6-(pyridine-3-yl)imidazo[1,2-a]pyridine-3-yl)methylene) benzenesulfonohydrazide], the IC50 in the experiment with STAT3 lay within 5000 to 10000 nM; in the experiment on IL-6 [1], 0.001 to 5 µM; in the experiment on TNF-α [2], 1 to 1000 nM; in the experiment with IL-6 [3] it was 0.01 to 0.3 µM; in the experiment on TNF-α [4] it was 0.01 to 0.3 µM; in the experiment with IL-8 it was 0.3 to 3 µM.

`CN(N=Cc1cnc2ccc(-c3cccnc3)cn12)S(=O)(=O)c1c(F)cccc1F` [Example 14, 2,6-Difluoro-N-methyl-N′-((6-(pyridine-3-yl)imidazo[1,2-a]pyridine-3-yl)methylene) benzenesulfonohydrazide]: the IC50 on PI3Kα kinase was 0.01 to 0.5 µM; in the experiment on STAT3, 5000 to 10000 nM; in the experiment with IL-6 [1], 0.001 to 5 µM; in the experiment with TNF-α [2], 1 to 1000 nM; in the experiment on IL-6 [3], 0.01 to 0.3 µM; with TNF-α [4] it was 0.01 to 0.3 µM. Besides, in the experiment on IL-8, the IC50 is 0.3 to 3 µM.

With `Cc1ccc(F)c(S(=O)(=O)N(C)N=Cc2cnc3ccc(-c4cccnc4)cn23)c1` [Example 19, 2-Fluoro-N, 5-dimethyl-N′-((6-(pyridine-3-yl)imidazo[1,2-a]pyridine-3-yl)methylene) benzenesulfonohydrazide], the IC50 in the experiment with IL-6 [1] was 0.001 to 5 µM; in the experiment on TNF-α [2], 1 to 1000 nM; in the experiment with IL-6 [3], 0.3 to 3 µM; in the experiment on TNF-α [4], 0.3 to 3 µM; with IL-8, 0.3 to 3 µM.
